Test results published in patent US12208088B2 (Genentech, Inc., priority 2018, dated 2025).

The compounds below were run against HPK1 (Homo sapiens (Human), UniProt Q92918) (assay: HPK1 Lantha binding assay ("Lanth")). Details: binding assays; Morrison Ki fit.
Method in brief: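 Ki values are from Morrison-equation fitting of 665/615 nm TR-FRET signals, taking enzyme level, tracer level and tracer Kd into account. The assay mix held HPK1 (2 nM), Eu-anti-GST antibody (2 nM) and Tracer222 (15 nM). Incubations were two 1 h steps at 23 °C, on 5-fold serial compound dilutions.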

Sequence of HPK1 (Q92918 1-346 limits assumed): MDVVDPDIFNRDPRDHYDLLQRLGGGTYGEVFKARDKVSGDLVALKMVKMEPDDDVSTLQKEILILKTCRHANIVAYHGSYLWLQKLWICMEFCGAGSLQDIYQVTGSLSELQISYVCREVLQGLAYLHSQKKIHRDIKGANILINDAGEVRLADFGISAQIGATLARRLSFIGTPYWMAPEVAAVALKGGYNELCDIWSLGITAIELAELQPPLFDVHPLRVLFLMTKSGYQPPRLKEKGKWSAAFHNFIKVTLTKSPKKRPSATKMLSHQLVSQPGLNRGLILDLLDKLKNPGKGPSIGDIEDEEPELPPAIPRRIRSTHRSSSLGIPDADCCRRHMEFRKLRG

| SMILES | Ki |
| --- | --- |
| Cc1cnn([C@H]2CC[C@@]3(CNc4ncc(-c5ccc(N)c(C(=O)N(C)C)c5F)c(Cl)c43)C2)c1N (relative stereo) [Compound 178a, 6-Amino-3-((1R,3S)-3-(5-amino-4-methyl-1H-pyrazol-1-yl)-4′-chloro-1′,2′-dihydrospiro[cyclopentane-1,3′-pyrrolo[2,3-b]pyridin]-5′-yl)-2-fluoro-N,N-dimethylbenzamide] | 15.9 nM |
| C[C@@H]1CNC(=O)N1c1cccc(-c2cnc3c(c2Cl)C2(CC2)CN3)c1 [Compound 69a, (R)-1-(3-(4′-Chloro-1′,2′-dihydrospiro[cyclopropane-1,3′-pyrrolo[2,3-b]pyridin]-5′-yl)phenyl)-5-methylimidazolidin-2-one] | 35.6 nM |
| CN(C)C(=O)c1c(N)ccc(-c2cnc3c(c2Cl)[C@]2(CC[C@@](C)(C#N)C2)CN3)c1F (relative stereo) [Compound 151a, 6-Amino-3-((1R,3R)-4′-chloro-3-cyano-3-methyl-1′,2′-dihydrospiro[cyclopentane-1,3′-pyrrolo[2,3-b]pyridin]-5′-yl)-2-fluoro-N,N-dimethylbenzamide] | 42 nM |
| O=C1CCCCN1c1cccc2c(-c3cnc4c(c3Cl)[C@]3(CC[C@H](O)C3)CN4)c[nH]c12 (single isomer, unassigned) [Compound 300a] | 27 nM |
| Cn1cccc(-c2cccc(-c3cnc4c(c3Cl)[C@]3(CC[C@H](O)C3)CN4)c2)c1=O [Compound 68c, 3-(3-((1R,3S)-4′-chloro-3-hydroxy-1′,2′-dihydrospiro[cyclopentane-1,3′-pyrrolo[2,3-b]pyridin]-5′-yl)phenyl)-1-methylpyridin-2(1H)-one] | 5.4 nM |
| Cc1n[nH]cc1-c1ccc2[nH]cc(-c3cnc4c(c3)C3(CC3)CN4)c2c1 [Compound 326, 5′-(5-(3-Methyl-1H-pyrazol-4-yl)-1H-indol-3-yl)-1′,2′-dihydrospiro[cyclopropane-1,3′-pyrrolo[2,3-b]pyridine]] | 76 nM |
| CN(CCO)C(=O)c1c(N)ccc(-c2cnc3c(c2Cl)C2(CC2)CN3)c1F [Compound 36, 6-Amino-3-(4′-chloro-1′,2′-dihydrospiro[cyclopropane-1,3′-pyrrolo[2,3-b]pyridin]-5′-yl)-2-fluoro-N-(2-hydroxyethyl)-N-methylbenzamide] | 4.7 nM |
| c1cc2[nH]cc(-c3cnc4c(c3)C3(CC3)CN4)c2cn1 [Compound 329, 5-(1H-Pyrrolo[3,2-c]pyridin-3-yl)spiro[1,2-dihydropyrrolo[2,3-b]pyridine-3,1′-cyclopropane]] | 90 nM |

The remaining compounds from weak to strong by Ki, led by results:

| Ki | SMILES |
| --- | --- |
| 337 nM | CC(C)(O)Cn1cc(-c2cnc3c(c2Cl)C2(CC=CC2)CN3)cn1 [Compound 320, 1-(4-(4′-Chloro-1′,2′-dihydrospiro[cyclopentane-1,3′-pyrrolo[2,3-b]pyridin]-3-en-5′-yl)-1H-pyrazol-1-yl)-2-methylpropan-2-ol] |
| 108 nM | NC(=O)C1(c2cccc(-c3cnc4c(c3Cl)C3(CC=CC3)CN4)c2F)CC1 [Compound 265, 1-(3-(4′-Chloro-1′,2′-dihydrospiro[cyclopentane-1,3′-pyrrolo[2,3-b]pyridin]-3-en-5′-yl)-2-fluorophenyl)cyclopropane-1-carboxamide] |
| 19.9 nM | CN(C)C(=O)c1c(N)ccc(-c2cnc3c(c2Cl)[C@]2(CC[C@H](C(C)(C)O)CC2)CN3)c1F [Compound 255a, 6-Amino-3-((1s,4s)-4′-chloro-4-(2-hydroxypropan-2-yl)-1′,2′-dihydrospiro[cyclohexane-1,3′-pyrrolo[2,3-b]pyridin]-5′-yl)-2-fluoro-N,N-dimethylbenzamide] |
| 3.15 nM | Cc1c(CC#N)ccnc1-c1cccc(-c2cnc3c(c2)C2(CC2)CN3)c1F [Compound 251, 2-(2-(3-(1′,2′-Dihydrospiro[cyclopropane-1,3′-pyrrolo[2,3-b]pyridin]-5′-yl)-2-fluorophenyl)-3-methylpyridin-4-yl)acetonitrile] |
